Data: publication PMC5034337 (Scientific Reports, 2016)

Key:
[1] = in vivo
[2] = French farmers with detectable DOM-1 levels; cited from earlier work
[3] = tested on: primary human colon epithelial cells (HCEC-1CT)
[4] = tested on: HT-29 colon carcinoma cells
[5] = in vivo; cited from earlier work
[6] = moderately exposed UK population; cited from earlier work
mammalian ribosomes = type: biochemical, rabbit

Compound	detection in urine samples [1]	share of the total urinary DON, average [2] [%]	concentration(s) with proliferative stimulus (T24 bladder cancer cells) [nM]	cytotoxic effect (T24 bladder cancer cells)	lowest concentration at which the proliferative effect was present (T24 bladder cancer cells) [nM]	concentration from which a significant decrease of cell viability was detectable (T24 bladder cancer cells; human) [µM]	concentration(s) with proliferative stimulus (Caco-2 cells) [nM]	cytotoxic effect (Caco-2 cells)	concentration from which a significant decrease of cell viability was detectable (Caco-2 cells; human) [µM]	cytotoxic effect [3]	concentration from which a significant decrease of cell viability was detectable ([3]; human) [µM]	concentration(s) with proliferative stimulus [4] [µM]	cytotoxic effect [4]	concentration from which a significant decrease of cell viability was detectable ([4]; human) [µM]	maximum urinary concentration [5] [µg/L]	overall 24 h urinary excretion rate of total DON (sum of DON and its glucuronides), average [6] [%]	concentration at which translation was completely inhibited (mammalian ribosomes) [µM]
C=C1[C@@H]2O[C@@H]3C=C(C)C(=O)[C@@H](O)[C@]3(CO)[C@@]1(C)C[C@H]2O [DOM-1, deepoxy-DON]	no DOM-1 was detected in any sample	< 5	–	–	–	–	–	–	–	–	–	–	–	–	–	–	–
CC1=C[C@H]2O[C@@H]3[C@H](O)C[C@](C)([C@@]2(CO)[C@H](O)C1=O)[C@]31CO1 [DON, deoxynivalenol]	–	–	0.1 to 10	concentration dependent cytotoxicity	0.1	1	10	concentration dependent cytotoxicity	10	concentration dependent cytotoxicity	1	0.1	concentration dependent cytotoxicity	10	275	72	20
